This is an account of results in patent US20110071289A1, “AMINOPYRAZOLE AMIDE DERIVATIVE” (DAINIPPON SUMITOMO PHARMA CO., LTD., priority 2007, published 2011).

Assay [1] relates to cortisone reducing activity of cultured human adipocytes. Nature of the assay: Inhibitory activity assay for cortisone reducing activity of cultured human adipocytes. The class given is cell-based. The note with it: 100 nM [1,2-3H] cortisone, 37° C. for 3 hours. The method, then:
Normal human proadipocytes (HPrAD-vis, Cambrex) were inoculated on 48 well plate, and differentiated according to a protocol attached to a kit. Media for cells on 9-11th day of differentiation were changed to 0.2 ml of D-MEM media (GIBCO, Inc.) containing 100 nM [1,2-^3H] cortisone (1 μCi/well, Muromati Yakuhin), 0.5% DMSO, test compound (DMSO only for test compound-addition districts and test compound additive-free districts). After incubation at 37° C. for 3 hours, all media were collected. As background districts, cell additive-free media were used. Media were mixed with ethyl acetate (0.1 ml) in Eppendorf tube. The mixture was vortexed, and then centrifuged at 5,000 rpm×1 minute at room temperature to separate ethyl acetate (upper layer). Ethyl acetate (10 μl) was spotted on aluminum plate for thin-layer chromatography (silica gel 60 angstrom, Merck, referred to as TLC plate hereinafter). To a sealed vessel was added chloroform/methanol (90:10, v/v) as an eluent, and TLC plate was developed and then dried at room temperature. To the dried TLC plate was exposed an imaging plate (TR-2040, FUJIFILM) over 16 or more hours. After exposure, the imaging plate was analyzed by Bioimage analyzer (BAS2500, FUJIFILM), and [^3H] radioactivity of the spot corresponding to cortisol on TLC plate was determined Inhibitory activities of cortisone reducing activities of test compounds were calculated as below.
(Inhibitory activity (%))=100×((Test compound additive-free districts)−(Test compound-addition districts))/((Test compound additive-free districts)−(Background districts))
IC50 values were calculated by a linear regression of logarithmic values of analyte concentrations and inhibitory activity values using 2-point data wherein inhibitory activities indicated values around 50%. […] IC50 values for human adipocyte cortisone reducing activities of the following inventive compounds were determined

The target in the next assay is T1, human 11βHSD1 (Homo sapiens, UniProt P28845).
T1 construct: made in house; host or cells: CHO-K1 cells stably transfected with pCMV-Tag 2B plasmid; pellet after ultracentrifugation at 100,000 g
The experiment in a line: Measurement of human 11βHSD1 inhibitory activity (HTRF cortisol detection). The class given is biochemical. The conditions noted are these: human 11βHSD1 enzyme fraction, 20 nM cortisone, 37° C. for 2 hours. From the text: A sequence containing ORF of human 11βHSD1 gene (GenBank Accession No. BC012593) was amplified according to PCR technique which was one of conventional methods, and digested by a restriction enzyme BamHI/XhoI. 2 kb of DNA fragments obtained from agarose gels were inserted into pCMV-Tag 2B plasmids (Stratagene) according to a conventional method. The plasmids prepared in Escherichia coli in large amounts were transformed into CHO-K1 cells, and then cells stably expressing human 11βHSD1 genes were selected by medium containing 400 μg/ml G-418 solution (GIBCO, Inc.) containing media. The resulting stably expressing cells were incubated up to −90% confluent in F-12 medium (Nacalai Tesque, Inc.) containing 10% charcoal-dextran treated fetal bovine serum (Hyclone), 1% penicillin-streptomycin (Nacalai Tesque, Inc.) and 400 μg/ml G-418. The resultant cells were treated by tripsin, and the obtained cells were suspended in the above media (1 L) and seeded in cell stack 10 chamber (Corning) in total amounts. The mixture was incubated in CO2 incubator (5% CO2, 37° C.) for 4-5 days, and then treated by tripsin. Total amounts of the obtained cells were washed with PBS buffer (GIBCO, Inc.), and stored at −80° C. […]
A test compound and cortisone (Sigma) was diluted with buffer (50 mM HEPES pH7.3, 150 mM NaCl, 1 mM EDTA) to prepare a substrate solution containing a test compound (50 mM HEPES pH7.3, 150 mM NaCl, 1 mM EDTA, 1 mM NADPH, 20 nM cortisone) (2% DMSO solution), and the solution was added to 384-well low-volume plate (manufactured by Greiner, No. 3782086) in 4 μl/well. […] After the enzyme reaction, the produced cortisol was detected by Homogeneous time-resolved fluorescence (HTRF) to determine enzyme inhibitory activities. […] A fluorescence intensity was determined by 2120 EnVision® Multilabel counter (PerkinElmer) to calculate enzyme inhibitory activities from 2 wavelengths of fluorescence intensity ratios (665 nm/620 nm).
Each inhibitory activity (%) of each test compound was calculated from the average value (%) of inhibitory activities of 4 wells under the same condition. […]
In general terms: TR-FRET usually uses a lanthanide donor and a delayed reading to cut background.

T1 sequence (P28845 whole entry): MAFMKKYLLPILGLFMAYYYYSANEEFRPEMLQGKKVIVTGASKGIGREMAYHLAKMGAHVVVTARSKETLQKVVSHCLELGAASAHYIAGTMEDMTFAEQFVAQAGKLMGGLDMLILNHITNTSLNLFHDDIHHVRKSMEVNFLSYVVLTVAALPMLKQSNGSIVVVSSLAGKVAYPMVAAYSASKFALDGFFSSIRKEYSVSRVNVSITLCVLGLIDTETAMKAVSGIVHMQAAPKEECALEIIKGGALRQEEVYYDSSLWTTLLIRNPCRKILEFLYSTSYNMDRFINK

What is called IC50 is the point on the concentration scale where inhibition reaches its midpoint. Low values mean greater potency, high ones weaker potency. In turn, `CC(C)N(C)c1cc(C(=O)N[C@H]2C3CC4CC2C[C@](C(N)=O)(C4)C3)nn1C` [Example 8, N-[(E)-5-Carbamoyladamantan-2-yl]-5-[isopropyl(methyl)amino]-1-methyl-1H-pyrazole-3-carboxamide] returned an IC50 in assay [1] (Adipocyte) of 8.7 nM.

On to `CN(C)c1c(Cl)c(C(=O)N[C@H]2C3CC4CC2C[C@](C(N)=O)(C4)C3)nn1C` [Example 11, N-[(E)-5-Carbamoyladamantan-2-yl]-4-chloro-5-(dimethylamino)-1-methyl-1H-pyrazole-3-carboxamide], for which the IC50 against human 11βHSD1 came out at 32 nM. Consider `CN(CC1CC1)c1cc(C(=O)N[C@H]2C3CC4CC2C[C@](C(N)=O)(C4)C3)nn1C` [Example 15, N-[(E)-5-Carbamoyladamantan-2-yl]-5-[(cyclopropylmethyl)(methyl)amino]-1-methyl-1H-pyrazole-3-carboxamide], for which, on human 11βHSD1, the IC50 was determined as 39 nM. The same measure, in the same setting: the value for `CN(c1cc(C(=O)N[C@H]2C3CC4CC2C[C@](C(N)=O)(C4)C3)nn1C)C1CCC1` [Example 19, N-[(E)-5-Carbamoyladamantan-2-yl]-5-[cyclobutyl(methyl)amino]-1-methyl-1H-pyrazole-3-carboxamide] was 25 nM. In assay [1], `COc1ccc(C2(N(C)c3c(Cl)c(C(=O)NC4C5CC6CC4CC(C(N)=O)(C6)C5)nn3C)CC2)cc1` (stereo not drawn) [Example 22, N-[(E)-5-(Aminocarbonyl)-2-adamantyl]-4-chloro-5-[[1-(4-methoxyphenyl)cyclopropyl](methyl)amino]-1-methyl-1H-pyrazole-3-carboxamide] had an IC50 of 1.8 nM. Molecule `CN(CC1CCN(c2ccc(C#N)cn2)CC1)c1c(Cl)c(C(=O)N[C@H]2C3CC4CC2C[C@](O)(C4)C3)nn1C` [Example 166, 4-Chloro-5-[{[1-(5-cyanopyridin-2-yl)piperidin-4-yl]methyl}(methyl)amino]-N-[(E)-5-hydroxy-2-adamantyl]-1-methyl-1H-pyrazole-3-carboxamide] displayed an IC50 in assay [1] (Adipocyte) of 6.4 nM.
